Laboratory results published in PubChem BioAssay (NCI).
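96-well plates; 48 h exposure; 5 concentrations. Endpoints by linear interpolation between flanking doses. Not reached: highest tested concentration assigned. GI50 is the concentration that inhibits growth by half. TGI denotes the concentration required for complete inhibition of growth.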

Key:
Assay in all cases: inhibition of tumour cell growth, NCI panel, 48 h
ACHN renal = system: ACHN renal
CAKI-1 renal = system: CAKI-1 renal
HCC-2998 colon = system: HCC-2998 colon
HOP-62 NSCLC = system: HOP-62 NSCLC
HT29 colon = system: HT29 colon
MOLT-4 leukemia = system: MOLT-4 leukemia
OVCAR-5 ovarian = system: OVCAR-5 ovarian
SF-268 CNS = system: SF-268 CNS
SNB-75 CNS = system: SNB-75 CNS
NCI-H226 lung = system: NCI-H226 lung

CC1=Nc2ccccc2S/C1=C(/C)NNC(=O)C(N)=O
TGI (ACHN renal): > 100 µM | TGI (CAKI-1 renal): > 100 µM | TGI (HCC-2998 colon): > 100 µM | TGI (HOP-62 NSCLC): > 100 µM | TGI (HT29 colon): > 100 µM | TGI (MOLT-4 leukemia): > 100 µM | TGI (OVCAR-5 ovarian): > 100 µM | TGI (SF-268 CNS): > 100 µM | TGI (SNB-75 CNS): > 100 µM

CC1=C(C)C(=O)c2c(cc3ccccn23)C1=O
TGI (ACHN renal): > 100 µM | TGI (HCC-2998 colon): 29.9 µM | TGI (HT29 colon): 36.6 µM | TGI (MOLT-4 leukemia): > 100 µM | TGI (NCI-H226 lung): 58.5 µM | TGI (OVCAR-5 ovarian): 92.6 µM | TGI (SF-268 CNS): 52.8 µM | TGI (SNB-75 CNS): 43.1 µM

COc1ccc(-c2n/c(=C\c3c(O)[nH]c4ccc(OC)cc34)cc3c2=Nc2ccccc2-3)cc1
GI50 (ACHN renal): 26.7 µM | TGI (ACHN renal): > 100 µM | GI50 (CAKI-1 renal): 8.32 µM | TGI (CAKI-1 renal): 45 µM | GI50 (HCC-2998 colon): 2.93 µM | TGI (HCC-2998 colon): 10.1 µM | GI50 (HOP-62 NSCLC): 2.36 µM | TGI (HOP-62 NSCLC): 4.91 µM | GI50 (MOLT-4 leukemia): 2.41 µM | TGI (MOLT-4 leukemia): 5.27 µM | GI50 (OVCAR-5 ovarian): 44.5 µM | TGI (OVCAR-5 ovarian): > 100 µM | GI50 (SNB-75 CNS): 1.55 µM | TGI (SNB-75 CNS): 2.99 µM

CSc1ccc(C2OC(=O)c3ccccc32)c2ccccc12 (stereo not given)
TGI (ACHN renal): > 100 µM | TGI (CAKI-1 renal): > 100 µM | TGI (HCC-2998 colon): > 100 µM | TGI (HOP-62 NSCLC): > 100 µM | TGI (HT29 colon): > 100 µM | TGI (MOLT-4 leukemia): > 100 µM | TGI (OVCAR-5 ovarian): > 100 µM | TGI (SF-268 CNS): > 100 µM | TGI (SNB-75 CNS): 61.2 µM

Oc1cccc2ccc(N/N=C/c3cc(CN4CCCCC4)c(O)c4ncccc34)nc12
GI50 (ACHN renal): 0.0344 µM | TGI (ACHN renal): 1.19 µM | GI50 (CAKI-1 renal): 0.309 µM | TGI (CAKI-1 renal): 2.14 µM | GI50 (HCC-2998 colon): 0.0499 µM | TGI (HCC-2998 colon): 1.76 µM | GI50 (HOP-62 NSCLC): 0.0456 µM | TGI (HOP-62 NSCLC): 8.04 µM | GI50 (HT29 colon): 0.324 µM | TGI (HT29 colon): 1.46 µM | GI50 (MOLT-4 leukemia): 0.0597 µM | TGI (MOLT-4 leukemia): 3.82 µM | GI50 (NCI-H226 lung): 0.41 µM | TGI (NCI-H226 lung): 2.9 µM | GI50 (OVCAR-5 ovarian): 0.0639 µM | TGI (OVCAR-5 ovarian): 13 µM | GI50 (SF-268 CNS): 0.0635 µM | TGI (SF-268 CNS): 13.4 µM

CCN(CC)c1ccc(C(=O)c2ccccc2C(=O)O)c(O)c1
TGI (ACHN renal): > 100 µM | TGI (CAKI-1 renal): > 100 µM | TGI (HOP-62 NSCLC): > 100 µM | TGI (HT29 colon): > 100 µM | TGI (MOLT-4 leukemia): > 100 µM | TGI (OVCAR-5 ovarian): > 100 µM | TGI (SF-268 CNS): > 100 µM | TGI (SNB-75 CNS): > 100 µM

CCCNC1=C(C(=O)OCC)C(=O)CO1
TGI (ACHN renal): > 100 µM | TGI (CAKI-1 renal): > 100 µM | TGI (HCC-2998 colon): > 100 µM | TGI (HT29 colon): > 100 µM | TGI (MOLT-4 leukemia): > 100 µM | TGI (NCI-H226 lung): > 100 µM | TGI (OVCAR-5 ovarian): > 100 µM | TGI (SF-268 CNS): > 100 µM | TGI (SNB-75 CNS): > 100 µM

CCCCC(CC)CN=C(N)NC(N)=NCCCCCCN=C(N)NC(N)=NCC(CC)CCCC (stereo not given)
GI50 (ACHN renal): 2.85 µM | TGI (ACHN renal): 7.74 µM | GI50 (CAKI-1 renal): 2.93 µM | TGI (CAKI-1 renal): 10.3 µM | GI50 (NCI-H226 lung): 2.38 µM | TGI (NCI-H226 lung): 7.48 µM | GI50 (SF-268 CNS): 1.63 µM | TGI (SF-268 CNS): 3.09 µM

COc1ccc(OC)c(NC(=O)C2=C(C)NC(C)=C(C(=O)Nc3cc(OC)ccc3OC)C2c2ccccc2)c1
TGI (ACHN renal): > 100 µM | TGI (CAKI-1 renal): > 100 µM | TGI (HCC-2998 colon): > 100 µM | TGI (HOP-62 NSCLC): > 100 µM | TGI (HT29 colon): > 100 µM | TGI (MOLT-4 leukemia): > 100 µM | TGI (OVCAR-5 ovarian): > 100 µM | TGI (SF-268 CNS): > 100 µM | TGI (SNB-75 CNS): 91 µM

Cc1ccc(N=Cc2ccc3c(c2)OCO3)cc1C
TGI (ACHN renal): > 100 µM | TGI (CAKI-1 renal): > 100 µM | TGI (HT29 colon): > 100 µM | TGI (MOLT-4 leukemia): > 100 µM | TGI (NCI-H226 lung): > 100 µM | TGI (OVCAR-5 ovarian): > 100 µM | TGI (SF-268 CNS): > 100 µM | TGI (SNB-75 CNS): > 100 µM
